The values that follow come from patent US20250236608A1, “EGFR INHIBITORS” (Blueprint Medicines Corporation, priority 2022, published 2025).

Assay [1] has as its target EGFR L858R (Homo sapiens (Human), UniProt P00533, L858R). The assay is described as follows: Biochemical EGFR inhibition assay, EGFR L858R. As to conditions: Caliper mobility shift; 1.0 mM ATP or ATP Km; read-out: Enz EGFR_L858R IC50.
Assay [2] concerns the target EGFR (d746-750) (Homo sapiens (Human), UniProt P00533, DEL746-750). The assay is described as follows: Biochemical EGFR inhibition assay, EGFR (d746-750). As to conditions: Caliper mobility shift; 1.0 mM ATP or ATP Km; read-out: Enz EGFR_Exon19-del746-750 IC50.
For assay [3], the target named is pEGFR (Tyr1068) in PC-9 cells (Ex19Del) (Homo sapiens (Human), UniProt P00533, DEL746-750). The assay is described as follows: PC-9 pEGFR AlphaLISA assay. It is filed as cell-based. To be noted: 4 hours incubation, p-EGFR (Tyr1068) AlphaLISA, read-out: Ext pEGFR_PC-9 Ex19Del IC50. In a few lines:
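PC-9 cells seeded overnight in phenol-free DMEM with 10% FBS, then treated 4 h at 37°C with a 10-point, 4-fold compound series. Lysates assayed for pEGFR Tyr1068 by AlphaLISA SureFire; IC50 from % inhibition vs log concentration.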
A general note: In Alpha technology, singlet oxygen from a donor bead excites a nearby acceptor bead.

Chain of pEGFR (Tyr1068) in PC-9 cells (Ex19Del) (P00533 other isoform, or with tags, fused parts or gaps del 746-750): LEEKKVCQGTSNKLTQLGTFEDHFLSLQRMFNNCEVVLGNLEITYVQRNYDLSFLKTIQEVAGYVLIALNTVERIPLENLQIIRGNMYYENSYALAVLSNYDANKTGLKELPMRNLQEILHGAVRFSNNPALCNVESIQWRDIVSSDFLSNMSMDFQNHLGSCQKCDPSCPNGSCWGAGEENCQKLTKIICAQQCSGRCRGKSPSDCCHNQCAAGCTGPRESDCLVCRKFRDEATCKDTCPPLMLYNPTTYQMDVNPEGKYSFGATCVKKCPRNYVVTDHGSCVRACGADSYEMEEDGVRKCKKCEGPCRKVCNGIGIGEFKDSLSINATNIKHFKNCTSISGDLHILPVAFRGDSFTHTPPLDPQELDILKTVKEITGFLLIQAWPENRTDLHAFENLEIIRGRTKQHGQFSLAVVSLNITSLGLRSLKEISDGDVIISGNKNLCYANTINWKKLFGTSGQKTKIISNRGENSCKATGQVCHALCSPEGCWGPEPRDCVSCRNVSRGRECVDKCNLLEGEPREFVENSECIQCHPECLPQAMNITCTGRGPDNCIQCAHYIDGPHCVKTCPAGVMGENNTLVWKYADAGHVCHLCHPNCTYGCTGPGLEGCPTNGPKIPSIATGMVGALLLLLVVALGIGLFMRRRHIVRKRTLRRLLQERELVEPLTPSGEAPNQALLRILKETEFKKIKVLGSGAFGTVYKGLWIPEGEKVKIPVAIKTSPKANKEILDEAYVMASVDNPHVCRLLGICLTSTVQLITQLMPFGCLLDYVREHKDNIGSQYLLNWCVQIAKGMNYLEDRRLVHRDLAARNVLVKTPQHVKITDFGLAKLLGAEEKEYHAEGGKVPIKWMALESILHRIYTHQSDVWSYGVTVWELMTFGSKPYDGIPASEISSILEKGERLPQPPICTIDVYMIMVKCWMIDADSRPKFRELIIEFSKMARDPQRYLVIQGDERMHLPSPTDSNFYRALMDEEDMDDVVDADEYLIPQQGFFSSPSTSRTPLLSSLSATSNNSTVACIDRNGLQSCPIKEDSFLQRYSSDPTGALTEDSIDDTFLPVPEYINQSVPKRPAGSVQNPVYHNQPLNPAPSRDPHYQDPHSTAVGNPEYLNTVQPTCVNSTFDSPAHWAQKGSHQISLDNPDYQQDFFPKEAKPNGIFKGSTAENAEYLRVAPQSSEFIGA
Chain of EGFR L858R (P00533 25-1210 L858R): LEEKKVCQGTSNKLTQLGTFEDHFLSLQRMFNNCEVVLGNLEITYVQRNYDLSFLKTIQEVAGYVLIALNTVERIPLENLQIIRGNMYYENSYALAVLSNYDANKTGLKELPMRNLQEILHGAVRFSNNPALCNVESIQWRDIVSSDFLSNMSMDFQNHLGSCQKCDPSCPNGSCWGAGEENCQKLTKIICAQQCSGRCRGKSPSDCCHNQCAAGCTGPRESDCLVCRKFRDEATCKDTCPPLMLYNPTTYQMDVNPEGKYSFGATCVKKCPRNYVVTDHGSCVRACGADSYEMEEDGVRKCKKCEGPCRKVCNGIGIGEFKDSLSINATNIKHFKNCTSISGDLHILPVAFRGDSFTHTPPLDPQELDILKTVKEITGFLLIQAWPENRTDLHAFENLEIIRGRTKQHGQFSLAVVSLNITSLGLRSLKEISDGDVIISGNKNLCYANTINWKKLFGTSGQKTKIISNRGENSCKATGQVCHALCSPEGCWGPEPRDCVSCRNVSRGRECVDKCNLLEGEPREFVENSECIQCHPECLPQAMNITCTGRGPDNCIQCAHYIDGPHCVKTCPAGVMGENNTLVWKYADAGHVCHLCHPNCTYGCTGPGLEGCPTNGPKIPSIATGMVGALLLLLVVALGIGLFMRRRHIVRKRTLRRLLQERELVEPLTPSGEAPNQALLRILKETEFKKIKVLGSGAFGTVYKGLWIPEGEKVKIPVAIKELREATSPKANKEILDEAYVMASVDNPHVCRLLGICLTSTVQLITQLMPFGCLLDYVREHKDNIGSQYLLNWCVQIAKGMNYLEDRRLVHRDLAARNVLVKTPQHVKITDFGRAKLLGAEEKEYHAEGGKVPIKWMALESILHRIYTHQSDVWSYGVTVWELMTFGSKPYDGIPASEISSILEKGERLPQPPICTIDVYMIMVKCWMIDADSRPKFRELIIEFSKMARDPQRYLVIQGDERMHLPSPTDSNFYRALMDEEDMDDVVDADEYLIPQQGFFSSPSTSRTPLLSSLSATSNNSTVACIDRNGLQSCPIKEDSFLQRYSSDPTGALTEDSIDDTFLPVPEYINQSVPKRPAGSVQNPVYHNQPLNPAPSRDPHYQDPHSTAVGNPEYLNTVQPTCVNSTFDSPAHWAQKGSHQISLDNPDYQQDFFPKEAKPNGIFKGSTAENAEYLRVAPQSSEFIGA
Chain of EGFR (d746-750) (P00533 other isoform, or with tags, fused parts or gaps del 1-694/del 746-750 limits assumed): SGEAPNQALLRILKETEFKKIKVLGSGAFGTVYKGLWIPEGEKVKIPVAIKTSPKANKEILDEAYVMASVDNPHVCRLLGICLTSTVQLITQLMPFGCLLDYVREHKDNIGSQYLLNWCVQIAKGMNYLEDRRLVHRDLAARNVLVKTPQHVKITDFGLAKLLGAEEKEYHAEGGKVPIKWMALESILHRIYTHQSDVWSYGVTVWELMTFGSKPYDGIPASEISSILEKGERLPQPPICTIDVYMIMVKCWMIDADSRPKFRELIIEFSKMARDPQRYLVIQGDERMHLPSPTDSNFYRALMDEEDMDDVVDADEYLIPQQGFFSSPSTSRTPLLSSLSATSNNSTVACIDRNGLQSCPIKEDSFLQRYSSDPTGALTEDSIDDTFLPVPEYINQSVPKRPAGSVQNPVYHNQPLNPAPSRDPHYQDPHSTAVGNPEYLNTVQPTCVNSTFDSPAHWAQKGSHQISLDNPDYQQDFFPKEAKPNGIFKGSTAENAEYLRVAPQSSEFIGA

As usually defined, the IC50 is the concentration needed to halve the response being measured. With `CCC(=O)Nc1cc2c(-c3cn(C)nc3-c3c(F)cccc3F)ncnc2cc1-c1ccn(C)n1` [Example 453, N-(4-(3-(2,6-difluorophenyl)-1-methyl-1H-pyrazol-4-yl)-7-(1-methyl-1H-pyrazol-3-yl)quinazolin-6-yl)propionamide], the results for the IC50 in assay [1], in assay [2] and in assay [3] were 1.3 nM, 0.7 nM and 0.4 nM, respectively.
Take `COc1cc2ncnc(-c3cn(C)nc3-c3ccccc3)c2cc1OC(=O)N1[C@@H](C)CNC[C@@H]1C` [Example 88, 7-methoxy-4-(1-methyl-3-phenyl-1H-pyrazol-4-yl)quinazolin-6-yl (2S,6S)-2,6-dimethylpiperazine-1-carboxylate]: the IC50 in assay [1] worked out at 3.2 nM; in assay [2], 1.9 nM; in assay [3], 7.5 nM.
The matching figures for `COc1cc2ncnc(-c3cn(C)nc3-c3ccccc3)c2cc1O[C@@H]1CCN(C)C[C@H]1F` [Example 1, 6-(((3R,4R)-3-fluoro-1-methylpiperidin-4-yl)oxy)-7-methoxy-4-(1-methyl-3-phenyl-1H-pyrazol-4-yl)quinazoline]: 4.2 nM, 1.8 nM and 4.2 nM.
As for `COc1cc2ncnc(-c3cn(C)nc3-c3ccccc3)c2cc1NC(=O)C12CC(C1)C2` [Example 340, N-(7-methoxy-4-(1-methyl-3-phenyl-1H-pyrazol-4-yl)quinazolin-6-yl)bicyclo[1.1.1]pentane-1-carboxamide], the figures for the IC50 in assay [1], in assay [2] and in assay [3] were 3.3 nM, 1.6 nM and 2.5 nM, respectively.
Turning to `COc1cc2ncnc(-c3cn(C)nc3-c3ccccc3)c2nc1NC(=O)[C@]1(C(F)(F)F)CCN(C)C1` (single isomer, unassigned) [Example 395, (S)—N-(7-methoxy-4-(1-methyl-3-phenyl-1H-pyrazol-4-yl)pyrido[3,2-d]pyrimidin-6-yl)-1-methyl-3-(trifluoromethyl) pyrrolidine-3-carboxamide or (R)—N-(7-methoxy-4-(1-methyl-3-phenyl-1H-pyrazol-4-yl)pyrido[3,2-d]pyrimidin-6-yl)-1-methyl-3-(trifluoromethyl) pyrrolidine-3-carboxamide], the IC50 in assay [1] amounted to 3.1 nM; in assay [2], 1.2 nM; in assay [3] it was 5.3 nM.
In the case of `COc1cc2ncnc(-c3cn(C)nc3-c3ccccc3)c2cc1O[C@@H]1CCOC[C@H]1F` [Example 18, 6-(((3R,4R)-3-fluorotetrahydro-2H-pyran-4-yl)oxy)-7-methoxy-4-(1-methyl-3-phenyl-1H-pyrazol-4-yl)quinazoline], the IC50 in assay [1] was determined as 3.1 nM; in assay [2], 1.8 nM; in assay [3], 4.3 nM.
The matching figures for `COc1cc2ncnc(-c3cn(C)nc3-c3ccc(F)cc3)c2nc1NC(=O)[C@@]12CN(C)C[C@@H]1C2(F)F` (single isomer, unassigned) [Example 426, (1S,5R)-6,6-difluoro-N-(4-(3-(4-fluorophenyl)-1-methyl-1H-pyrazol-4-yl)-7-methoxypyrido[3,2-d]pyrimidin-6-yl)-3-methyl-3-azabicyclo[3.1.0]hexane-1-carboxamide or (1R,5S)-6,6-difluoro-N-(4-(3-(4-fluorophenyl)-1-methyl-1H-pyrazol-4-yl)-7-methoxypyrido[3,2-d]pyrimidin-6-yl)-3-methyl-3-azabicyclo[3.1.0]hexane-1-carboxamide]: 2.8 nM, 1.1 nM and 1.3 nM.
On to `COc1cc2ncnc(-c3cn(C)nc3-c3ccccc3F)c2nc1NC(=O)[C@]12C[C@H]1CN(C)C2` [Example 374, (1R,5R)—N-(4-(3-(2-fluorophenyl)-1-methyl-1H-pyrazol-4-yl)-7-methoxypyrido[3,2-d]pyrimidin-6-yl)-3-methyl-3-azabicyclo[3.1.0]hexane-1-carboxamide], for which the IC50 came out at 4.3 nM in assay [1], 1.4 nM in assay [2] and 3.6 nM in assay [3].
The corresponding values for `COc1cc2ncnc(-c3cn(CC(F)(F)F)nc3-c3ccccc3)c2cc1OC(=O)N1CCN(C)C[C@@H]1C` [Example 60, 7-methoxy-4-(3-phenyl-1-(2,2,2-trifluoroethyl)-1H-pyrazol-4-yl)quinazolin-6-yl(S)-2,4-dimethylpiperazine-1-carboxylate] are 5.1 nM, 3.6 nM and 3.6 nM.
As for `COc1cc2ncnc(-c3cn(C)nc3-c3ccccc3)c2cc1NC(=O)c1cncnc1` [Example 193, N-(7-methoxy-4-(1-methyl-3-phenyl-1H-pyrazol-4-yl)quinazolin-6-yl)pyrimidine-5-carboxamide], the 50% inhibitory concentration (IC50) in assay [1] is 1.5 nM; in assay [2] it was 0.7 nM; in assay [3] it was 2.9 nM.
As for `Cc1nnc([C@H](C)Oc2nc3c(-c4cn(C)nc4-c4ccccc4)ncnc3cc2OC2CC2)o1` (single isomer, unassigned) [Example 477, 2-[(1R)-1-{[7-cyclopropoxy-4-(1-methyl-3-phenyl-1H-pyrazol-4-yl)pyrido[3,2-d]pyrimidin-6-yl]oxy}ethyl]-5-methyl-1,3,4-oxadiazole or 2-[(1S)-1-{[7-cyclopropoxy-4-(1-methyl-3-phenyl-1H-pyrazol-4-yl)pyrido[3,2-d]pyrimidin-6-yl]oxy}ethyl]-5-methyl-1,3,4-oxadiazole], the 50% inhibitory concentration (IC50) stood at 7.7 nM in assay [1], 9 nM in assay [2] and 25 nM in assay [3].
The corresponding values for `COc1cc2ncnc(-c3cn(C)nc3-c3ccccc3)c2cc1N` [Preparation 190] are 1.3 nM, 0.8 nM and 5.4 nM.
As to `COc1cc2ncnc(-c3cn(C(F)(F)F)nc3-c3ccccc3)c2cc1NC(=O)C12CC(C1)C2` [Example 484, N-(7-methoxy-4-(3-phenyl-1-(trifluoromethyl)-1H-pyrazol-4-yl)quinazolin-6-yl)bicyclo[1.1.1]pentane-1-carboxamide], the results for the IC50 in assay [1], in assay [2] and in assay [3] were 48.7 nM, 13.4 nM and 184 nM, respectively.
On to `COc1cc2ncnc(-c3cn(CC(F)F)nc3-c3ccccc3)c2nc1NC(=O)[C@H]1CCN1C` [Example 391, (R)—N-(4-(1-(2,2-difluoroethyl)-3-phenyl-1H-pyrazol-4-yl)-7-methoxypyrido[3,2-d]pyrimidin-6-yl)-1-methylazetidine-2-carboxamide], for which the IC50 came out at 2.5 nM in assay [1], 1.3 nM in assay [2] and 0.7 nM in assay [3].
`COc1cc2ncnc(-c3cn(C)nc3-c3ccccc3)c2cc1NC(=O)[C@H]1C[C@H]1C` [Example 282, (1S,2R)—N-(7-methoxy-4-(1-methyl-3-phenyl-1H-pyrazol-4-yl)quinazolin-6-yl)-2-methylcyclopropane-1-carboxamide]: the IC50 amounted to 2.2 nM in assay [1], 1.6 nM in assay [2] and 0.7 nM in assay [3].
For `CCOc1cc2ncnc(-c3cn(CC)nc3-c3ccccc3)c2cc1N1CCOCC1` [Example 170, 4-(7-ethoxy-4-(1-ethyl-3-phenyl-1H-pyrazol-4-yl)quinazolin-6-yl)morpholine], the 50% inhibitory concentration (IC50) was found to be 2 nM in assay [1], 0.9 nM in assay [2] and 1.2 nM in assay [3].
For the compound `COc1cc2ncnc(-c3cn(C)nc3-c3ccccc3)c2nc1O[C@@H](C)c1cscn1` (single isomer, unassigned) [Example 50, (S)-4-(1-((7-methoxy-4-(1-methyl-3-phenyl-1H-pyrazol-4-yl)pyrido[3,2-d]pyrimidin-6-yl)oxy)ethyl)thiazole or (R)-4-(1-((7-methoxy-4-(1-methyl-3-phenyl-1H-pyrazol-4-yl)pyrido[3,2-d]pyrimidin-6-yl)oxy)ethyl)thiazole], the values for the IC50 in assay [1], in assay [2] and in assay [3] were 0.5 nM, 0.3 nM and 0.3 nM, respectively.
For `CCOc1cc2ncnc(-c3cn(C)nc3-c3ccccc3)c2cc1OC1CCOCC1` [Example 24, 7-ethoxy-4-(1-methyl-3-phenyl-1H-pyrazol-4-yl)-6-((tetrahydro-2H-pyran-4-yl)oxy)quinazoline], the IC50 in assay [1] stood at 1.3 nM; in assay [2] it was 0.8 nM; in assay [3], 2.6 nM.
Turning to `Cc1n[nH]c(-c2ccccc2)c1-c1ncnc2cc(-c3cnn(C)c3)ccc12` [Example 479, 7-(1-methyl-1H-pyrazol-4-yl)-4-(3-methyl-5-phenyl-1H-pyrazol-4-yl)quinazoline], the values for the IC50 in assay [1], in assay [2] and in assay [3] were 2.7 nM, 2.1 nM and 25.9 nM, respectively.
For the compound `COc1cc2ncnc(-c3cn(C)nc3-c3ccccc3)c2cc1NC(=O)[C@H](C)CN(C)C` (single isomer, unassigned) [Example 239, (R)-3-(dimethylamino)-N-(7-methoxy-4-(1-methyl-3-phenyl-1H-pyrazol-4-yl)quinazolin-6-yl)-2-methylpropanamide or (S)-3-(dimethylamino)-N-(7-methoxy-4-(1-methyl-3-phenyl-1H-pyrazol-4-yl)quinazolin-6-yl)-2-methylpropanamide], the IC50 in assay [1] was 4.1 nM; in assay [2] it was 1.7 nM; in assay [3], 4 nM.
`COc1cc2ncnc(-c3cn(C)nc3-c3ccccc3)c2cc1NC(=O)C1(C)CCC1` [Example 348, N-(7-methoxy-4-(1-methyl-3-phenyl-1H-pyrazol-4-yl)quinazolin-6-y1)-1-methylcyclobutane-1-carboxamide]: the IC50 amounted to 3.2 nM in assay [1], 1.7 nM in assay [2] and 3.4 nM in assay [3].
